Laboratory results: patent publication US9566247B2, “Nanoparticles for controlled release of anti-biofilm agents and methods of use” (priority 2013, dated 2017)

How the values were obtained:
[1] = test system: Streptococcus mutants (S. mutans); settings: cited from earlier work
[2] = test system: Biofilms of S. mutans UA159; assay: Antibiofilm activity, CFU per dry weight of biofilms on sHA discs; type: cell-based, Streptococcus mutans; settings: equivalent dose of free farnesol (15% EtOH) or free NPC
Method: Biofilms of S. mutans UA159 were formed on saliva coated hydroxyapatite (sHA) surfaces (12.7 mm in diameter, 1 mm in thickness, Clarkson Chromatography Products Inc., South Williamsport, Pa.) as detailed elsewhere (Koo et al., 2010, J Bacteriol, 192(12):3024-32). The HA discs were placed vertically using a custom-made holder and grown in UFTYE (pH 7.0) with 1% sucrose at 37° C. and 5% CO2. Disks were pretreated with the above-described solutions for 10 min, washed twice with sterile saline, and transferred back to culture media. The first treatment was applied directly after salivary pellicle formation (sHA) then treated disks were transferred to culture media containing S. mutans (10^5 CFU/ml). Biofilms were allowed to form on the discs without interruption for 6 hours at which point a second treatment was applied. The next day, biofilms were treated every 6 hours for a total of 3 treatments and the culture media was changed twice. After 48 hours, the amount of colony forming units (CFU) per dry-weight of biofilms was assessed. Briefly, the biofilms were removed and homogenized, then plated onto blood agar plates, and after incubation at 37° C., 5% CO2, the CFUs were counted as described previously (Koo et al., 2003, J Antimicrob Chemother, 52(5):782-9).

Structure (SMILES): CC(C)=CCCC(C)=CCCC(C)=CCO [farnesol]
- MIC [1]: < 28 µg/mL
- effect on CFU relative to PBS [2]: no effect on CFU
